Legend:
[1] = Cytotoxicity against Pgp deficient human LCC6 cells after 72 hrs by sulforhodamine B test; type: functional, cell-based; details: C6, 72 h
[2] = Cytotoxicity against multidrug resistant Pgp expressing human LCC6 cells after 72 hrs by sulforhodamine B test; type: functional, cell-based; details: LCC-6, 72 h
C6 = assay: Resistance index, Ratio of IC50 for multidrug resistant Pgp expressing human LCC6 cells to IC50 for Pgp deficient human LCC6 cells; type: functional; set-up: reference not given here
[3] = Cytotoxicity against multidrug resistant Pgp expressing human NCI/ADR cells after 72 hrs by sulforhodamine B test; type: functional, cell-based; details: NCI/ADR-RES
MCF7 [4] = assay: Resistance index, Ratio of IC50 for multidrug resistant Pgp expressing human NCI/ADR cells to IC50 for Pgp deficient human MCF7 cells; type: functional; set-up: reference not given here
MCF7 [5] = assay: Cytotoxicity against Pgp deficient human MCF7 cells after 72 hrs by sulforhodamine B test; type: functional, cell-based; details: MCF7, 72 h

CCC(=O)O[C@H]1C(=O)[C@@]2(C)[C@H]([C@H](OC(=O)c3cccc(F)c3)[C@]3(O)C[C@H](OC(=O)[C@H](O)[C@H](C=C(C)C)NC(=O)OC(C)(C)C)C(C)=C1C3(C)C)[C@]1(OC(C)=O)CO[C@@H]1C[C@@H]2O
IC50 [1]: 0.5 nM

CC(=O)O[C@@]12CO[C@@H]1C[C@H](O)[C@@]1(C)C(=O)[C@H](O)C3=C(C)[C@@H](OC(=O)[C@H](O)[C@@H](NC(=O)OC(C)(C)C)c4ccccc4)C[C@@](O)([C@@H](OC(=O)c4ccccc4)[C@H]21)C3(C)C.O.O.O [DOCETAXEL]
IC50 [1]: 1 nM | IC50 [2]: 120 nM

CC(=O)O[C@@]12CO[C@@H]1C[C@H](O)[C@@]1(C)C(=O)[C@H](OC(=O)c3ccccc3)C3=C(C)[C@@H](OC(=O)[C@H](O)[C@H](C=C(C)C)NC(=O)OC(C)(C)C)C[C@@](O)([C@@H](OC(=O)c4ccccc4)[C@H]21)C3(C)C
IC50 [1]: 1.8 nM | IC50 [2]: 4.8 nM | Ratio IC50 (C6): 2.7

CC(=O)O[C@@]12CO[C@@H]1C[C@H](O)[C@@]1(C)C(=O)[C@H](OC(=O)c3cccc4ccccc34)C3=C(C)[C@@H](OC(=O)[C@H](O)[C@H](C=C(C)C)NC(=O)OC(C)(C)C)C[C@@](O)([C@@H](OC(=O)c4ccccc4)[C@H]21)C3(C)C
IC50 [1]: 5.3 nM | IC50 [2]: 15.2 nM | Ratio IC50 (C6): 2.9

COc1cccc(C(=O)O[C@H]2C(=O)[C@@]3(C)[C@H]([C@H](OC(=O)c4ccccc4)[C@]4(O)C[C@H](OC(=O)[C@H](O)[C@H](C=C(C)C)NC(=O)OC(C)(C)C)C(C)=C2C4(C)C)[C@]2(OC(C)=O)CO[C@@H]2C[C@@H]3O)c1
IC50 [1]: 2.8 nM | IC50 [2]: 5.1 nM | Ratio IC50 (C6): 1.8

CCC(=O)O[C@H]1C(=O)[C@@]2(C)[C@H]([C@H](OC(=O)c3ccccc3)[C@]3(O)C[C@H](OC(=O)[C@H](O)[C@H](C=C(C)C)NC(=O)OC(C)(C)C)C(C)=C1C3(C)C)[C@]1(OC(C)=O)CO[C@@H]1C[C@@H]2O
IC50 [3]: 4 nM | Ratio IC50 (MCF7 [4]): 22

COc1cccc(CC(=O)O[C@H]2C(=O)[C@@]3(C)[C@H]([C@H](OC(=O)c4ccccc4)[C@]4(O)C[C@H](OC(=O)[C@H](O)[C@H](C=C(C)C)NC(=O)OC(C)(C)C)C(C)=C2C4(C)C)[C@]2(OC(C)=O)CO[C@@H]2C[C@@H]3O)c1
IC50 [1]: 2.1 nM | IC50 [2]: 20.3 nM | Ratio IC50 (C6): 9.7

COc1ccccc1CCC(=O)O[C@H]1C(=O)[C@@]2(C)[C@H]([C@H](OC(=O)c3ccccc3)[C@]3(O)C[C@H](OC(=O)[C@H](O)[C@H](C=C(C)C)NC(=O)OC(C)(C)C)C(C)=C1C3(C)C)[C@]1(OC(C)=O)CO[C@@H]1C[C@@H]2O
IC50 [1]: 1.5 nM | IC50 [2]: 5 nM | Ratio IC50 (C6): 3.3

CCC(=O)O[C@H]1C(=O)[C@@]2(C)[C@H]([C@H](OC(=O)c3cccc(OC)c3)[C@]3(O)C[C@H](OC(=O)[C@H](O)[C@@H](NC(=O)OC(C)(C)C)[C@H]4CC4(C)C)C(C)=C1C3(C)C)[C@]1(OC(C)=O)CO[C@@H]1C[C@@H]2O
IC50 [1]: 0.48 nM | IC50 (MCF7 [5]): 0.6 nM | IC50 [3]: 1.5 nM

COc1ccccc1CC(=O)O[C@H]1C(=O)[C@@]2(C)[C@H]([C@H](OC(=O)c3ccccc3)[C@]3(O)C[C@H](OC(=O)[C@H](O)[C@H](C=C(C)C)NC(=O)OC(C)(C)C)C(C)=C1C3(C)C)[C@]1(OC(C)=O)CO[C@@H]1C[C@@H]2O
IC50 [1]: 2.3 nM | IC50 [2]: 13.8 nM | Ratio IC50 (C6): 6

CC(=O)O[C@@]12CO[C@@H]1C[C@H](O)[C@@]1(C)C(=O)[C@H](OC(=O)CCc3ccccc3)C3=C(C)[C@@H](OC(=O)[C@H](O)[C@H](C=C(C)C)NC(=O)OC(C)(C)C)C[C@@](O)([C@@H](OC(=O)c4ccccc4)[C@H]21)C3(C)C
IC50 [1]: 5.1 nM | IC50 [2]: 31.2 nM | Ratio IC50 (C6): 6.1

COc1cccc(C(=O)O[C@H]2[C@@H]3[C@]4(OC(C)=O)CO[C@@H]4C[C@H](O)[C@@]3(C)C(=O)[C@H](OC(C)=O)C3=C(C)[C@@H](OC(=O)[C@H](O)[C@H](C=C(C)C)NC(=O)OC(C)(C)C)C[C@]2(O)C3(C)C)c1
IC50 [1]: 0.6 nM | IC50 (MCF7 [5]): 0.8 nM | IC50 [3]: 2.3 nM

COc1cccc(CCC(=O)O[C@H]2C(=O)[C@@]3(C)[C@H]([C@H](OC(=O)c4ccccc4)[C@]4(O)C[C@H](OC(=O)[C@H](O)[C@H](C=C(C)C)NC(=O)OC(C)(C)C)C(C)=C2C4(C)C)[C@]2(OC(C)=O)CO[C@@H]2C[C@@H]3O)c1
IC50 [1]: 3.7 nM | IC50 [2]: 6.7 nM | Ratio IC50 (C6): 1.8

CC(=O)O[C@@]12CO[C@@H]1C[C@H](O)[C@@]1(C)C(=O)[C@H](OC(=O)c3ccc4ccccc4c3)C3=C(C)[C@@H](OC(=O)[C@H](O)[C@H](C=C(C)C)NC(=O)OC(C)(C)C)C[C@@](O)([C@@H](OC(=O)c4ccccc4)[C@H]21)C3(C)C
IC50 [1]: 6.3 nM | IC50 [2]: 15.2 nM | Ratio IC50 (C6): 2.4

CCC(=O)O[C@H]1C(=O)[C@@]2(C)[C@H]([C@H](OC(=O)c3cccc(N=[N+]=[N-])c3)[C@]3(O)C[C@H](OC(=O)[C@H](O)[C@H](C=C(C)C)NC(=O)OC(C)(C)C)C(C)=C1C3(C)C)[C@]1(OC(C)=O)CO[C@@H]1C[C@@H]2O
IC50 [1]: 0.9 nM | IC50 (MCF7 [5]): 0.9 nM | IC50 [3]: 1.1 nM

COc1ccc(CCC(=O)O[C@H]2C(=O)[C@@]3(C)[C@H]([C@H](OC(=O)c4ccccc4)[C@]4(O)C[C@H](OC(=O)[C@H](O)[C@H](C=C(C)C)NC(=O)OC(C)(C)C)C(C)=C2C4(C)C)[C@]2(OC(C)=O)CO[C@@H]2C[C@@H]3O)cc1
IC50 [1]: 1.7 nM | IC50 [2]: 4.9 nM | Ratio IC50 (C6): 2.9

C/C=C/[C@H](NC(=O)OC(C)(C)C)[C@@H](O)C(=O)O[C@H]1C[C@@]2(O)[C@@H](OC(=O)c3cccc(OC)c3)[C@@H]3[C@]4(OC(C)=O)CO[C@@H]4C[C@H](O)[C@@]3(C)C(=O)[C@H](OC(=O)CC)C(=C1C)C2(C)C
IC50 [1]: 1.2 nM

CCC(=O)O[C@H]1C(=O)[C@@]2(C)[C@H]([C@H](OC(=O)c3cccc(N=[N+]=[N-])c3)[C@]3(O)C[C@H](OC(=O)[C@H](O)[C@H](CC(C)C)NC(=O)OC(C)(C)C)C(C)=C1C3(C)C)[C@]1(OC(C)=O)CO[C@@H]1C[C@@H]2O
IC50 [1]: 1.1 nM | IC50 (MCF7 [5]): 1 nM | IC50 [3]: 2.1 nM

COc1cccc(C(=O)O[C@H]2[C@@H]3[C@]4(OC(C)=O)CO[C@@H]4C[C@H](O)[C@@]3(C)C(=O)[C@H](OC(=O)C3CC3)C3=C(C)[C@@H](OC(=O)[C@H](O)[C@H](C=C(C)C)NC(=O)OC(C)(C)C)C[C@]2(O)C3(C)C)c1
IC50 [1]: 1 nM | IC50 [2]: 2.9 nM | Ratio IC50 (C6): 2.9

COc1ccccc1C(=O)O[C@H]1C(=O)[C@@]2(C)[C@H]([C@H](OC(=O)c3ccccc3)[C@]3(O)C[C@H](OC(=O)[C@H](O)[C@H](C=C(C)C)NC(=O)OC(C)(C)C)C(C)=C1C3(C)C)[C@]1(OC(C)=O)CO[C@@H]1C[C@@H]2O
IC50 [1]: 2.1 nM | IC50 [2]: 5.8 nM | Ratio IC50 (C6): 2.7

CCC(=O)O[C@H]1C(=O)[C@@]2(C)[C@H]([C@H](OC(=O)c3ccccc3)[C@]3(O)C[C@H](OC(=O)[C@H](O)[C@H](CC(C)C)NC(=O)OC(C)(C)C)C(C)=C1C3(C)C)[C@]1(OC(C)=O)CO[C@@H]1C[C@@H]2O
IC50 [3]: 5.1 nM | Ratio IC50 (MCF7 [4]): 15

C=CC[C@H](NC(=O)OC(C)(C)C)[C@@H](O)C(=O)O[C@H]1C[C@@]2(O)[C@@H](OC(=O)c3cccc(OC)c3)[C@@H]3[C@]4(OC(C)=O)CO[C@@H]4C[C@H](O)[C@@]3(C)C(=O)[C@H](OC(=O)CC)C(=C1C)C2(C)C
IC50 [1]: 1.2 nM | IC50 (MCF7 [5]): 0.8 nM | IC50 [3]: 8.7 nM

CC(=O)O[C@@]12CO[C@@H]1C[C@H](O)[C@@]1(C)C(=O)[C@H](OC(=O)OCc3ccccc3)C3=C(C)[C@@H](OC(=O)[C@H](O)[C@H](C=C(C)C)NC(=O)OC(C)(C)C)C[C@@](O)([C@@H](OC(=O)c4ccccc4)[C@H]21)C3(C)C
IC50 [1]: 1.8 nM | IC50 [2]: 16.7 nM | Ratio IC50 (C6): 9.3

CCC(=O)O[C@H]1C(=O)[C@@]2(C)[C@H]([C@H](OC(=O)c3cccc(F)c3)[C@]3(O)C[C@H](OC(=O)[C@H](O)[C@H](CC(C)C)NC(=O)OC(C)(C)C)C(C)=C1C3(C)C)[C@]1(OC(C)=O)CO[C@@H]1C[C@@H]2O
IC50 [1]: 0.4 nM

COc1ccc(C(=O)O[C@H]2C(=O)[C@@]3(C)[C@H]([C@H](OC(=O)c4ccccc4)[C@]4(O)C[C@H](OC(=O)[C@H](O)[C@H](C=C(C)C)NC(=O)OC(C)(C)C)C(C)=C2C4(C)C)[C@]2(OC(C)=O)CO[C@@H]2C[C@@H]3O)cc1
IC50 [1]: 3.8 nM | IC50 [2]: 4.7 nM | Ratio IC50 (C6): 1.2

CCC(=O)O[C@H]1C(=O)[C@@]2(C)[C@H]([C@H](OC(=O)c3cccc(Cl)c3)[C@]3(O)C[C@H](OC(=O)[C@H](O)[C@H](C=C(C)C)NC(=O)OC(C)(C)C)C(C)=C1C3(C)C)[C@]1(OC(C)=O)CO[C@@H]1C[C@@H]2O
IC50 [1]: 0.8 nM

CC(=O)O[C@H]1C(=O)[C@@]2(C)[C@H]([C@H](OC(=O)c3cccc(C)c3)[C@]3(O)C[C@H](OC(=O)[C@H](O)[C@H](C=C(C)C)NC(=O)OC(C)(C)C)C(C)=C1C3(C)C)[C@]1(OC(C)=O)CO[C@@H]1C[C@@H]2O
IC50 [1]: 1.5 nM | IC50 (MCF7 [5]): 0.8 nM | IC50 [3]: 5 nM

C=CCC[C@H](NC(=O)OC(C)(C)C)[C@@H](O)C(=O)O[C@H]1C[C@@]2(O)[C@@H](OC(=O)c3cccc(OC)c3)[C@@H]3[C@]4(OC(C)=O)CO[C@@H]4C[C@H](O)[C@@]3(C)C(=O)[C@H](OC(=O)CC)C(=C1C)C2(C)C
IC50 [1]: 0.9 nM | IC50 (MCF7 [5]): 2 nM | IC50 [3]: 7.7 nM

C=Cc1cccc(C(=O)O[C@H]2[C@@H]3[C@]4(OC(C)=O)CO[C@@H]4C[C@H](O)[C@@]3(C)C(=O)[C@H](OC(=O)CC)C3=C(C)[C@@H](OC(=O)[C@H](O)[C@H](C=C(C)C)NC(=O)OC(C)(C)C)C[C@]2(O)C3(C)C)c1
IC50 [1]: 2.9 nM

Source: ChEMBL document CHEMBL1150351, “Design, synthesis, and biological evaluation of new-generation taxoids” (J Med Chem, 2008)
